Like-named read-outs stand apart in the source and are kept apart here.
Key:
Assay type in all cases: cell-based
ER = ER (Homo sapiens (Human), UniProt P03372); experiment: In-cell western blot analysis of ER for "B" compounds; settings: 16 hours, read-out: ICW DC50
Description: R^T 2h, gentle shaking. Negative control: cells plus secondary antibodies (no primary antibodies); e, wash x 4 with PBS+0.05-0.1% Tween 20, gentel shaking; f, anti-rabbit-680 and anti-mouse-800 (both 1:1000 in LiCor block+0.05% Tween20, R^T 1h, gentle shaking, no light. LI-COR: 0.2% to reduce background; g, wash×4 with PBS+0.05% Tween 20, gental shaking; h, add 100 μL or 25 μL of PBS to each well and read on CLX plate reader. The relative ER percentage in treated cells were obtained by comparing the values of treated wells to those in untreated and DMSO-treated wells as 100%.

[1] = Cell growth assay (WST-8) for "B" compounds; settings: T47D cell line, read-out: Cell growth Inhibition in T47D cell line IC50
Description: Cell Growth Assay. The cells were seeded at 1500/well in 96 well plates overnight. One day after the seeding, they were treated with indicated doses of compounds respectively, 4 days after the compound treatment, 10% WST-8 reagent was added to the culture medium and incubate in a CO2 incubator at 37° C. for 2.5 hours. Before reading, the plate was mixed gently on an orbital shaker for one minute to ensure homogeneous distribution of color. The absorbance was measured of each sample using a microplate reader at a wavelength of 450 nm. The relative absorbance was calculated against the vehicle control from three individually repeats.

[2] = Western blot analysis for "B" compounds; settings: read-out: Traditional Western Degradation Potency (DC50)
In short: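 Target protein levels given as relative mean band intensity over GAPDH from scanned immunoblots. Lysates of treated cells in RIPA buffer, equalized by BCA, separated on 10% gels and transferred to PVDF.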

ER, sequence (P03372 whole entry): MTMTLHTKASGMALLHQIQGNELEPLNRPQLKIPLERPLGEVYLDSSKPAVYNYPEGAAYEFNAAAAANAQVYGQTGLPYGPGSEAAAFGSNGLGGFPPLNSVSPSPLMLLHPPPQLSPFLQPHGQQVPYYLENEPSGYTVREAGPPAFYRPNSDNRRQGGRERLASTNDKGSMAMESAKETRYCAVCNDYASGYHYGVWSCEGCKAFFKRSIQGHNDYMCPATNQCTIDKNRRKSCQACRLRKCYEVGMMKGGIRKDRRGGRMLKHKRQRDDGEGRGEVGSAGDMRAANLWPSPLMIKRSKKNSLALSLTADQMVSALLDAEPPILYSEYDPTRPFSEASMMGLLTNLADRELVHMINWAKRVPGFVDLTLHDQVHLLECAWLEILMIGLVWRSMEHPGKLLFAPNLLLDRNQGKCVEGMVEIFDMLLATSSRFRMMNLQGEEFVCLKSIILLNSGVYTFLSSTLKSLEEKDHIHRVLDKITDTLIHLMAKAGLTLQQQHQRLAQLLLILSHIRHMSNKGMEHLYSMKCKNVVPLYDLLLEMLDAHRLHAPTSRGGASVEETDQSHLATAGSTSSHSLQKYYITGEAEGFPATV

SMILES | DC50 (ER) | DC50 [2] | IC50 ([1]; T47D) | IC50 [1]
O=C1CCC(N2Cc3cc4c(cc3C2=O)OC[C@@H]2CN(C(=O)CN3CCC5(CC3)CN(c3ccc([C@@H]6c7ccc(O)cc7CC[C@@H]6c6ccccc6)cc3)C5)CCN42)C(=O)N1 (stereo partly drawn) [Compound B161, 3-((S)-3-(2-(2-(4-((1R,2S)-6-hydroxy-2-phenyl-1,2,3,4-tetrahydronaphthalen-1-yl)phenyl)-2,7-diazaspiro[3.5]nonan-7-yl)acetyl)-8-oxo-1,2,3,4,4a,5,8,10-octahydro-9H-pyrazino[1′,2′:4,5][1,4]oxazino[2,3-f]isoindol-9-yl)piperidine-2,6-dione] | < 10 nM |  |  | 
COc1c2c(cc3c1C(=O)N(C1CCC(=O)NC1=O)C3=O)CN(CC(=O)N1CCC3(CC1)CCN(c1ccc([C@@H]4c5ccc(O)cc5CC[C@@H]4c4ccccc4)cc1)CC3)C2 (stereo partly drawn) [Compound B136, 2-(2,6-dioxopiperidin-3-yl)-6-(2-(9-(4-((1R,2S)-6-hydroxy-2-phenyl-1,2,3,4-tetrahydronaphthalen-1-yl)phenyl)-3,9-diazaspiro[5.5]undecan-3-yl)-2-oxoethyl)-4-methoxy-6,7-dihydropyrrolo[3,4-f]isoindole-1,3(2H,5H)-dione] |  | 10 to 100 nM | 1 to 10 nM | 
O=C1CCC(N2C(=O)c3cc4c(cc3C2=O)CN(CC(=O)N2CCC3(CC2)CCN(c2ccc([C@H]5c6ccc7[nH]ncc7c6CC[C@H]5c5ccccc5)cc2)CC3)C4)C(=O)N1 (stereo partly drawn) [Compound B138, 2-(2,6-dioxopiperidin-3-yl)-6-(2-oxo-2-(9-(4-((6S,7R)-7-phenyl-6,7,8,9-tetrahydro-3H-benzo[e]indazol-6-yl)phenyl)-3,9-diazaspiro[5.5]undecan-3-yl)ethyl)-6,7-dihydropyrrolo[3,4-f]isoindole-1,3(2H,5H)-dione] |  | > 100 nM | 1 to 10 nM | 
O=C1CCC(N2C(=O)c3cc4c(cc3C2=O)CN(CC(=O)N2CC3(CCN(c5ccc([C@@H]6c7ccc(O)cc7CC[C@@H]6c6ccccc6)cc5F)CC3)C2)C4)C(=O)N1 (mixture of isomers) [Compound B43, 2-(2,6-dioxopiperidin-3-yl)-6-(2-(7-(2-fluoro-4-((1R,2S)-6-hydroxy-2-phenyl-1,2,3,4-tetrahydronaphthalen-1-yl)phenyl)-2,7-diazaspiro[3.5]nonan-2-yl)-2-oxoethyl)-6,7-dihydropyrrolo[3,4-f]isoindole-1,3(2H,5H)-dione] |  | > 100 nM | 1 to 10 nM | 
O=C1CCC(N2C(=O)c3cc4c(cc3C2=O)CN(CC(=O)N2CCC3(CC2)CCN(c2ccc([C@@H]5c6ccc(O)cc6CC[C@@H]5C5CCC(F)(F)CC5)cc2)CC3)C4)C(=O)N1 (mixture of isomers) [Compound B48, 6-(2-(9-(4-((1R,2R)-2-(4,4-difluorocyclohexyl)-6-hydroxy-1,2,3,4-tetrahydronaphthalen-1-yl)phenyl)-3,9-diazaspiro[5.5]undecan-3-yl)-2-oxoethyl)-2-(2,6-dioxopiperidin-3-yl)-6,7-dihydropyrrolo[3,4-f]isoindole-1,3(2H,5H)-dione] |  | 10 to 100 nM | 1 to 10 nM | 
O=C1CCC(N2C(=O)c3cc4c(cc3C2=O)CN(CC2CCN(C(=O)C3CCN(c5ccc([C@@H]6c7ccc(O)cc7CC[C@@H]6c6ccccc6)cc5)CC3)CC2)C4)C(=O)N1 (stereo partly drawn) [Compound B56, 2-(2,6-dioxopiperidin-3-yl)-6-((1-(1-(4-((1R,2S)-6-hydroxy-2-phenyl-1,2,3,4-tetrahydronaphthalen-1-yl)phenyl)piperidine-4-carbonyl)piperidin-4-yl)methyl)-6,7-dihydropyrrolo[3,4-f]isoindole-1,3(2H,5H)-dione] |  | 10 to 100 nM | 1 to 10 nM | 
O=C1CCC(N2C(=O)c3cc4c(cc3C2=O)CN(CC(=O)N2CCC3(CC2)CCN(c2c(F)cc([C@@H]5c6ccc(O)cc6CC[C@@H]5c5ccccc5)cc2F)CC3)C4)C(=O)N1 (mixture of isomers) [Compound B45, 6-(2-(9-(2,6-difluoro-4-((1R,2S)-6-hydroxy-2-phenyl-1,2,3,4-tetrahydronaphthalen-1-yl)phenyl)-3,9-diazaspiro[5.5]undecan-3-yl)-2-oxoethyl)-2-(2,6-dioxopiperidin-3-yl)-6,7-dihydropyrrolo[3,4-f]isoindole-1,3(2H,5H)-dione] |  | > 100 nM | > 10 nM | 
O=C1CCC(N2C(=O)c3cc4c(cc3C2=O)CN(CC(=O)N2CCC3(CC2)CCN(c2ccc([C@@H]5c6ccc(O)cc6CC[C@@H]5C5CCCCC5)cc2)CC3)C4)C(=O)N1 (mixture of isomers) [Compound B47, 6-(2-(9-(4-((1R,2R)-2-cyclohexyl-6-hydroxy-1,2,3,4-tetrahydronaphthalen-1-yl)phenyl)-3,9-diazaspiro[5.5]undecan-3-yl)-2-oxoethyl)-2-(2,6-dioxopiperidin-3-yl)-6,7-dihydropyrrolo[3,4-f]isoindole-1,3(2H,5H)-dione] |  | 10 to 100 nM | 1 to 10 nM | 
O=C1CCC(N2C(=O)c3cc4c(cc3C2=O)CN(CC(=O)N2CC3(CCN(c5ccc([C@@H]6c7ccc(O)cc7CC[C@@H]6c6ccccc6)cc5)CC3)C2)C4)C(=O)N1 (stereo partly drawn) [Compound B28, 2-(2,6-dioxopiperidin-3-yl)-6-(2-(7-(4-((1R,2S)-6-hydroxy-2-phenyl-1,2,3,4-tetrahydronaphthalen-1-yl)phenyl)-2,7-diazaspiro[3.5]nonan-2-yl)-2-oxoethyl)-6,7-dihydropyrrolo[3,4-f]isoindole-1,3(2H,5H)-dione] |  | < 10 nM |  | 1 to 10 nM
O=C1CCC(N2C(=O)c3cc4c(cc3C2=O)CN(C(=O)C2CCN(CC3CCN(c5ccc([C@@H]6c7ccc(O)cc7CC[C@@H]6c6ccccc6)cc5)CC3)CC2)C4)C(=O)N1 (stereo partly drawn) [Compound B57, 2-(2,6-dioxopiperidin-3-yl)-6-(1-((1-(4-((1R,2S)-6-hydroxy-2-phenyl-1,2,3,4-tetrahydronaphthalen-1-yl)phenyl)piperidin-4-yl)methyl)piperidine-4-carbonyl)-6,7-dihydropyrrolo[3,4-f]isoindole-1,3(2H,5H)-dione] |  | > 100 nM | 1 to 10 nM | 
O=C1CCC(N2C(=O)c3cc4c(cc3C2=O)CN(C2CCN(CC3CCN(c5ccc([C@@H]6c7ccc(O)cc7CC[C@@H]6c6ccccc6)cc5)CC3)CC2)C4)C(=O)N1 (stereo partly drawn) [Compound B64, 2-(2,6-dioxopiperidin-3-yl)-6-(1-((1-(4-((1R,2S)-6-hydroxy-2-phenyl-1,2,3,4-tctrahydronaphthalcn-1-yl)phenyl)pipcridin-4-yl)methyl)piperidin-4-yl)-6,7-dihydropyrrolo[3,4-f]isoindole-1,3(2H,5H)-dione] |  | < 10 nM | 1 to 10 nM | 

The next lines start with results.

DC50 (ER) | DC50 [2] | SMILES | IC50 ([1]; T47D) | IC50 [1]
10 to 100 nM |  | O=C1CC[C@H](N2Cc3c(ccc4c3OC[C@H]3CN(C[C@H]5CC[C@H](Nc6ccc([C@@H]7c8ccc(O)cc8CC[C@@H]7c7ccccc7)cc6)CC5)CCN43)C2=O)C(=O)N1 [Compound B353, (S)-3-((R)-7-(((1R,4R)-4-((4-((1R,2S)-6-hydroxy-2-phenyl-1,2,3,4-tetrahydronaphthalen-1-yl)phenyl)amino)cyclohexyl)methyl)-1-oxo-1,3,5,5a,6,7,8,9-octahydro-2H-pyrazino[1′,2′:4,5][1,4]oxazino[2,3-e]isoindol-2-yl)piperidine-2,6-dione] |  | 
> 100 nM |  | O=C1CCC(Nc2ccc(C3CCN(CC4CCN(c5ccc([C@@H]6c7ccc(O)cc7CC[C@@H]6c6ccccc6)cc5)CC4)CC3)cc2F)C(=O)N1 (stereo partly drawn) [Compound B378, 3-((2-fluoro-4-(1-((1-(4-((1R,2S)-6-hydroxy-2-phenyl-1,2,3,4-tetrahydronaphthalen-1-yl)phenyl)piperidin-4-yl)methyl)piperidin-4-yl)phenyl)amino)piperidine-2,6-dione] |  | 
> 100 nM |  | O=C1CCC(Nc2ccc(N3CCN(CC4CCN(c5ccc([C@@H]6c7ccc(O)cc7CC[C@@H]6c6ccccc6)cc5)CC4)CC3)c(F)c2)C(=O)N1 (stereo partly drawn) [Compound B380, 3-((3-fluoro-4-(4-((1-(4-((1R,2S)-6-hydroxy-2-phenyl-1,2,3,4-tetrahydronaphthalen-1-yl)phenyl)piperidin-4-yl)methyl)piperazin-1-yl)phenyl)amino)piperidine-2,6-dione] |  | 
> 100 nM |  | CN(CC1CC2(CCN(c3ccc([C@@H]4c5ccc(O)cc5CC[C@@H]4c4ccccc4)cc3)CC2)C1)[C@H]1C[C@H]2COc3cc4c(cc3N2C1)C(=O)N(C1CCC(=O)NC1=O)C4=O (stereo partly drawn) [Compound B331, (2S,3aS)-8-(2,6-dioxopiperidin-3-yl)-2-(((7-(4-((1R,2S)-6-hydroxy-2-phenyl-1,2,3,4-tetrahydronaphthalen-1-yl)phenyl)-7-azaspiro[3.5]nonan-2-yl)methyl)(methyl)amino)-2,3,3a,4-tetrahydro-1H,7H-pyrrolo[1′,2′:4,5][1,4]oxazino[2,3-f]isoindole-7,9(8H)-dione] |  | 
< 10 nM |  | O=C1CCC(N2Cc3c(ccc4c3OC[C@H]3CN(C[C@H]5CC[C@H](Nc6ccc([C@@H]7c8ccc(O)cc8CC[C@@H]7c7ccccc7)cc6)CC5)CCN43)C2=O)C(=O)N1 (stereo partly drawn) [Compound B322, 3-((R)-7-(((1R,4R)-4-((4-((1R,2S)-6-hydroxy-2-phenyl-1,2,3,4-tetrahydronaphthalen-1-yl)phenyl)amino)cyclohexyl)methyl)-1-oxo-1,3,5,5a,6,7,8,9-octahydro-2H-pyrazino[1′,2′:4,5][1,4]oxazino[2,3-e]isoindol-2-yl)piperidine-2,6-dione] |  | 
